Patent US20250084067A1, “PYRAZOLE-SUBSTITUTED CYCLOPENTANOL ESTER DERIVATIVE AND USE THEREOF” (CHIA TAI TIANQING PHARMACEUTICAL GROUP CO., LTD., priority 2022, published 2025)
Like-named read-outs stand apart in the source and are kept apart here.

How the values were obtained:
CDK2/CycA2 kinase = CDK2/CycA2 kinase (Homo sapiens (Human), UniProt P24941); experiment: Determination of inhibitory activity against CDK2/CycA2 kinase; format: biochemical
Method: The wells were set in duplicate, and a control well was set. […] The resulting mixture was left to react at room temperature for 2 h, and then 5 µL of EDTA was added to terminate the reaction, followed by addition of 5 μL of a detection antibody (manufacturer: PerkinElmer, concentration: 8 nM). The mixture was incubated at room temperature for 1 h.

CDK2 CycE1 kinase = CDK2 CycE1 kinase (Homo sapiens (Human), UniProt P24941); experiment: Determination of inhibitory activity against CDK2 CycE1 kinase; format: biochemical
Method: CDK2 CycE1 kinase solution (concentration: 0.015 ng/μL) was added to assay wells at 6 μL/well, and different compounds dissolved in DMSO were added to the assay wells separately using a nanoliter pipettor, such that the final concentrations of the compounds were 300 nM to 0.07 nM. The wells were set in duplicate, and a control well was set. After incubation of the above system for 30 min, ATP (concentration: 50 μM or 5000 μM) was mixed with ULight-Myelin Basic Protein Peptide substrate (manufacturer: PerkinElmer, concentration: […]) at a ratio of 1:1, and the mixture was added to the assay wells at 4 μL/well. The resulting mixture was left to react at room temperature for 2 h, and then 5 μL of EDTA was added to terminate the reaction, followed by addition of 5 μL of a detection antibody (manufacturer: PerkinElmer, concentration: 8 nM). The mixture was incubated at room temperature for 1 h.

[1] = read-out: CDK2/CycA2 10 μM ATP (kinase) IC50
[2] = read-out: CDK2/CycE1 10 μM ATP (kinase) IC50

Compound	IC50 (CDK2/CycA2 kinase; [1]) [µM]	IC50 (CDK2 CycE1 kinase; [2]) [µM]	IC50 (CDK2/CycA2 kinase; 10 μM ATP) [µM]	IC50 (CDK2 CycE1 kinase; 10 μM ATP) [µM]
CC(C)NC(=O)O[C@@H]1CC[C@H](c2cc(Nc3cc(OC(F)(F)F)c(NS(C)(=O)=O)cn3)n[nH]2)C1 [Example 31]	< 0.01	< 0.01	–	–
CC(C)NC(=O)O[C@@H]1CC[C@H](c2cc(Nc3cc(F)c(NS(C)(=O)=O)cc3F)n[nH]2)C1 [Example 32]	–	–	< 0.01	< 0.01
CC(C)NC(=O)O[C@@H]1CC[C@H](c2cc(Nc3ccc(S(N)(=O)=O)c(F)c3)n[nH]2)C1 [Example 33]	–	–	< 0.01	< 0.01
CC(C)NC(=O)O[C@H]1CC[C@@H](c2cc(Nc3ccc(S(N)(=O)=O)cc3F)n[nH]2)C1 [Example 34]	–	–	< 0.01	< 0.01
CC(C)NC(=O)O[C@@H]1CC[C@H](c2cc(Nc3ccc(N4CCCC4=O)c(F)c3)n[nH]2)C1 [Example 35]	–	–	< 0.01	< 0.01
CC(C)NC(=O)O[C@@H]1CC[C@H](c2cc(Nc3ccc(-c4cnco4)cn3)n[nH]2)C1 [Example 36]	–	–	0.01 to 0.05	< 0.01
CC(C)NC(=O)O[C@@H]1CC[C@H](c2cc(Nc3ccc(NS(C)(=O)=O)c(F)c3F)n[nH]2)C1 [Example 37]	–	–	< 0.01	< 0.01
CC(C)NC(=O)O[C@@H]1CC[C@H](c2cc(Nc3ccc4c(c3)OCO4)n[nH]2)C1 [Example 39]	–	–	< 0.01	< 0.01
CC(C)NC(=O)O[C@@H]1CC[C@H](c2cc(Nc3ccc(NS(C)(=O)=O)c(Cl)c3)n[nH]2)C1 [Example 40]	–	–	< 0.01	< 0.01
CC(C)NC(=O)O[C@@H]1CC[C@H](c2cc(Nc3ccc(P(C)(C)=O)cc3)n[nH]2)C1 [Example 41]	–	–	0.01 to 0.05	0.01 to 0.05
CC(C)NC(=O)O[C@@H]1CC[C@H](c2cc(Nc3ccc4c(c3)CC(=O)N4)n[nH]2)C1 [Example 42]	–	–	< 0.01	< 0.01
CC(C)NC(=O)O[C@@H]1CC[C@H](c2cc(Nc3ccc4c(c3)CS(=O)(=O)N4)n[nH]2)C1 [Example 43]	< 0.01	< 0.01	–	–
COc1nc(Nc2cc([C@H]3CC[C@@H](OC(=O)NC(C)C)C3)[nH]n2)ccc1NS(C)(=O)=O [Example 45]	–	–	< 0.01	< 0.01
CC(C)NC(=O)O[C@@H]1CC[C@H](c2cc(Nc3ccc(C(N)=O)cc3)n[nH]2)C1 [Example 46]	–	–	< 0.01	< 0.01
CC(C)NC(=O)O[C@@H]1CC[C@H](c2cc(Nc3ccc(NS(C)(=O)=O)c(OC(F)(F)F)c3)n[nH]2)C1 [Example 47]	–	–	< 0.01	< 0.01
CC1(NC(=O)O[C@@H]2CC[C@H](c3cc(Nc4ccc5c(c4)CS(=O)(=O)C5)n[nH]3)C2)CC1 [Example 48]	–	–	< 0.01	< 0.01
CC(C)NC(=O)O[C@H]1CC[C@@H](c2cc(Nc3ccc(NS(C)(=O)=O)c(C(F)(F)F)c3)n[nH]2)C1 [Example 50]	–	–	< 0.01	< 0.01
CC(C)NC(=O)O[C@@H]1CC[C@H](c2cc(Nc3ccc4c(c3)CCN4S(C)(=O)=O)n[nH]2)C1 [Example 51]	–	–	0.01 to 0.05	< 0.01
CC(C)NC(=O)O[C@@H]1CC[C@H](c2cc(Nc3ccc(S(N)(=O)=O)c(Cl)n3)n[nH]2)C1 [Example 52]	–	–	< 0.01	< 0.01
CNC(=O)O[C@@H]1CC[C@H](c2cc(Nc3ccc4c(c3)CS(=O)(=O)C4)n[nH]2)C1 [Example 53]	–	–	< 0.01	< 0.01
CC(C)NC(=O)O[C@@H]1CC[C@H](c2cc(Nc3ccc(S(C)(=O)=O)cc3)n[nH]2)C1 [Example 54]	–	–	< 0.01	< 0.01
COc1cc(Nc2cc([C@H]3CC[C@@H](OC(=O)NC(C)C)C3)[nH]n2)ccc1NS(C)(=O)=O [Example 55]	–	–	< 0.01	< 0.01
CC(C)NC(=O)O[C@@H]1CC[C@H](c2cc(Nc3ccc4c(c3)CNS4(=O)=O)n[nH]2)C1 [Example 56]	–	–	< 0.01	< 0.01
CC(C)NC(=O)O[C@@H]1CC[C@H](c2cc(Nc3ccc(N4CCCC4=O)c(Cl)n3)[nH]n2)C1 [Example 57]	< 0.01	< 0.01	–	–
CC(C)NC(=O)O[C@@H]1CC[C@H](c2cc(Nc3ccc(N=S(C)(C)=O)cc3)n[nH]2)C1 [Example 59]	–	–	0.01 to 0.05	0.01 to 0.05
CC(C)NC(=O)O[C@@H]1CC[C@H](c2cc(NC3CCN(S(=O)(=O)c4cnn(C)c4)CC3)n[nH]2)C1 [Example 60]	–	–	0.01 to 0.05	0.01 to 0.05
CC(C)NC(=O)O[C@@H]1CC[C@H](c2cc(Nc3ccc(S(C)(=N)=O)cc3)n[nH]2)C1 (some centres unmarked) [Example 61]	–	–	< 0.01	< 0.01
CC(C)NC(=O)O[C@@H]1CC[C@H](c2cc(Nc3ccc(S(=N)(=O)C4CC4)cc3)n[nH]2)C1 (some centres unmarked) [Example 62]	–	–	< 0.01	< 0.01
